Here are results for 8 compounds from ChEMBL document CHEMBL4680227, “Design and synthesis of selective degraders of EGFR mutant” (Eur J Med Chem, 2020).

Active and inactive are the calls of the source. The rule behind the calls is not given here.

Data set [1] has as its target T1, von Hippel-Lindau disease tumor suppressor/Epidermal growth factor receptor (Homo sapiens, UniProt P00533+P40337). The experiment in a line: Protac activity at VHL/EGFR in human A431 cells assessed as EGFR degradation by Western blot analysis. In kind it is cell-based. To be noted: a-431.
Data set [2] addresses von Hippel-Lindau disease tumor suppressor/Epidermal growth factor receptor (Homo sapiens, UniProt P00533+P40337, T790M/L858R). The experiment in a line: (§1) Protac activity at VHL/EGFR L858R/T790M mutant in human NCI-H1975 cells assessed as EGFR degradation by Western blot analysis. In kind it is cell-based. In general terms: In western blotting, separated proteins are transferred to a membrane and probed.

Data set [3] concerns the target Epidermal growth factor receptor (Homo sapiens, UniProt P00533, L858R/T790M). The experiment in a line: Inhibition of EGFR L858R/T790M (unknown origin) using Poly (Glu, Tyr) 4:1 as substrate measured after 1 hr by ELISA.
Data set [4] has as its target Epidermal growth factor receptor (Homo sapiens, UniProt P00533). Description: Inhibition of wild-type EGFR (unknown origin) using Poly (Glu, Tyr) 4:1 as substrate measured after 1 hr by ELISA. For orientation: ELISA stands for enzyme-linked immunosorbent assay.
For data set [5], the system named is von Hippel-Lindau disease tumor suppressor/Epidermal growth factor receptor (Homo sapiens), P00533+P40337 [L858R,T790M]. The experiment in a line: Protac activity at VHL/EGFR L858R/T790M mutant in human NCI-H1975 cells assessed as EGFR degradation measured after 16 hrs by Western blot analysis. The class given is cell-based.
The test system is the same in data set [6]. Description: Protac activity at VHL/EGFR L858R/T790M mutant in human NCI-H1975 cells assessed as reduction in EGFR autophosphorylation measured after 16 hrs by Western blot analysis. The class given is cell-based.
Data set [7] has the same test system. The experiment in a line: Protac activity at VHL/EGFR L858R/T790M mutant in human NCI-H1975 cells assessed as reduction in AKT phosphorylation measured after 16 hrs by Western blot analysis. The class given is cell-based.
Data set [8] has the same test system. Description: Protac activity at VHL/EGFR L858R/T790M mutant in human NCI-H1975 cells assessed as reduction in ERK phosphorylation measured after 16 hrs by Western blot analysis. The class given is cell-based.
The nature of data set [9]: Effect on AKT level in human NCI-H1975 cells up to 10000 nM treated 8 hrs post serum starvation measured after 16 hrs by Western blot analysis. In kind it is ADME, cell-based. To be noted: nci-h1975, 16 h.
Data set [10] in a line: Effect on ERK level in human NCI-H1975 cells up to 10000 nM treated 8 hrs post serum starvation measured after 16 hrs by Western blot analysis. The class given is ADME, cell-based. To be noted: nci-h1975, 16 h.
In data set [11] the test system is von Hippel-Lindau disease tumor suppressor/Epidermal growth factor receptor (Homo sapiens), P00533+P40337 [L858R,T790M]. Description: Protac activity at VHL/EGFR L858R/T790M mutant in human NCI-H1975 cells assessed as EGFR degradation at >2000 nM measured after 16 hrs by Western blot analysis. In kind it is cell-based. To be noted: dose nM >2000, time 16.0 hrs.

Data set [12] has the same test system. The experiment in a line: Protac activity at VHL/EGFR L858R/T790M mutant in human NCI-H1975 cells assessed as reduction in AKT phosphorylation at >2000 nM measured after 16 hrs by Western blot analysis. The class given is cell-based. To be noted: dose nM >2000, time 16.0 hrs.
Data set [13] shares this test system. Description: Protac activity at VHL/EGFR L858R/T790M mutant in human NCI-H1975 cells assessed as reduction in ERK phosphorylation at >2000 nM measured after 16 hrs by Western blot analysis. In kind it is cell-based. To be noted: dose nM >2000, time 16.0 hrs.
Data set [14] addresses T1, von Hippel-Lindau disease tumor suppressor/Epidermal growth factor receptor. The experiment in a line: Protac activity at VHL/EGFR in human A431 cells assessed as EGFR degradation up to 10000 nM measured after 16 hrs by Western blot analysis. The class given is cell-based. To be noted: A-431, dose nM <=10000, time 16.0 hrs.
The target is the same in data set [15]. Description: Protac activity at VHL/EGFR in human A431 cells assessed as reduction in AKT phosphorylation up to 10000 nM measured after 16 hrs by Western blot analysis. The class given is cell-based. To be noted: A-431, dose nM <=10000, time 16.0 hrs.
The target is the same in data set [16]. The experiment in a line: Protac activity at VHL/EGFR in human A431 cells assessed as reduction in ERK phosphorylation up to 10000 nM measured after 16 hrs by Western blot analysis. In kind it is cell-based. Particulars: A-431, dose nM <=10000, time 16.0 hrs.
Data set [17] concerns von Hippel-Lindau disease tumor suppressor/Epidermal growth factor receptor (Homo sapiens), P00533+P40337 [L858R,T790M]. The experiment in a line: Protac activity at VHL/EGFR L858R/T790M mutant in human NCI-H1975 cells assessed as induction of EGFR degradation at 200 nM measured after 6 hrs by Western blot analysis relative to control. The class given is cell-based.
Data set [18] has the same test system. The experiment in a line: Protac activity at VHL/EGFR L858R/T790M mutant in human NCI-H1975 cells assessed as induction of EGFR degradation at 200 nM measured after 12 hrs by Western blot analysis relative to control. In kind it is cell-based.
For data set [19] the test system is unchanged. Description: Protac activity at VHL/EGFR L858R/T790M mutant in human NCI-H1975 cells assessed as induction of EGFR degradation at 200 nM measured after 24 hrs by Western blot analysis. In kind it is cell-based.
In data set [20] the test system is NCI-H1975. The experiment in a line: Antiproliferative activity against human NCI-H1975 cells measured after 72 hrs by CCK8 assay. To be noted: NCI-H1975, 72 h. In kind it is functional, cell-based.
The test system of data set [21] is von Hippel-Lindau disease tumor suppressor/Epidermal growth factor receptor (Homo sapiens), P00533+P40337 [L858R,T790M]. Description: Protac activity at VHL/EGFR L858R/T790M mutant in human NCI-H1975 cells assessed as induction of EGFR degradation at 10 to 100 nM measured after 12 hrs in presence of proteasome inhibitor MG132 by Western blot analysis. The class given is cell-based. To be noted: dose 10-100 nM.

The test system is the same in data set [22]. The experiment in a line: Protac activity at VHL/EGFR L858R/T790M mutant in human NCI-H1975 cells assessed as induction of EGFR degradation at 10 to 100 nM measured after 1 hr in presence of protein synthesis inhibitor cycloheximide by Western blot analysis. To be noted: dose 10-100 nM. In kind it is cell-based.
Data set [23] shares this test system. Description: Protac activity at VHL/EGFR L858R/T790M mutant in human NCI-H1975 cells assessed as induction of EGFR degradation at 100 nM in presence of EGFR L858R/T790M mutant ligand XTF-262 by Western blot analysis. In kind it is cell-based.
Data set [24] shares this test system. Description: Protac activity at VHL/EGFR L858R/T790M mutant in human NCI-H1975 cells assessed as induction of EGFR degradation at 100 nM in presence of EGFR L858R/T790M mutant ligand osimertinib by Western blot analysis. The class given is cell-based.
For data set [25] the test system is unchanged. Description: Protac activity at VHL/EGFR L858R/T790M mutant in human NCI-H1975 cells assessed as induction of EGFR degradation at 100 nM in presence of VHL ligand (S,R,S)-AHPC osimertinib by Western blot analysis. The class given is cell-based.
In data set [26] the target is E3 ubiquitin-protein ligase Mdm2/Epidermal growth factor receptor (Homo sapiens, UniProt Q00987+P00533). Description: Protac activity at MDM2/EGFR in human A431 cells assessed as EGFR degradation by Western blot analysis. The class given is cell-based. Particulars: a-431.
Data set [27] concerns the target E3 ubiquitin-protein ligase Mdm2/Epidermal growth factor receptor (Homo sapiens, UniProt Q00987+P00533, T790M/L858M). The experiment in a line: Protac activity at MDM2/EGFR L858R/T790M mutant in human NCI-H1975 cells assessed as EGFR degradation by Western blot analysis. The class given is cell-based.
Data set [28] deals with von Hippel-Lindau disease tumor suppressor/Epidermal growth factor receptor (Homo sapiens), P00533+P40337 [L858R,T790M]. The description is as §1. The class given is cell-based.

In general, DC50 refers to the concentration giving 50% degradation. One may read the IC50 as the midpoint of a concentration-inhibition curve.

For the compound `C=CC(=O)Nc1cccc(-n2c(=O)cc(C)c3cnc(Nc4ccc(N5CCN(CCCCCC(=O)N[C@H](C(=O)N6C[C@H](O)C[C@H]6C(=O)NCc6ccc(-c7scnc7C)cc6)C(C)(C)C)CC5)cc4OC)nc32)c1`, the results for the DC50 in data set [1] and in data set [2] were more than 2000 nM and 5.9 nM, respectively. The IC50 in [3] is 19.3 nM; in data set [4], more than 1000 nM; in data set [20] it was 506 nM. Besides, the Activity result was “Dose-dependent effect” in data set [5]; “Dose-dependent effect” in data set [6]; “Dose-dependent effect” in [7]; “Dose-dependent effect” in data set [8]; “Non-Toxic” in data set [9]; “Non-Toxic” in [10]. Further, the Activity came to 63% in data set [17] and 89% in data set [18]. In addition, the outcome in [11] and in data set [22] was Active. Moreover, the outcome in data set [12], in [13], in data set [14], in [15], in [16] and in [19] was inactive. The result in [21], in data set [23], in [24] and in data set [25] was inactive.
Consider `C=CC(=O)Nc1cccc(-n2c(=O)cc(C)c3cnc(Nc4ccc(N5CCN(CCCCCCCCCC(=O)N[C@H](C(=O)N6C[C@H](O)C[C@H]6C(=O)NCc6ccc(-c7scnc7C)cc6)C(C)(C)C)CC5)cc4OC)nc32)c1`, for which the DC50 is more than 2000 nM in [1] and 132 nM in [2].
With `C=CC(=O)Nc1cccc(-n2c(=O)cc(C)c3cnc(Nc4ccc(N5CCN(C(=O)CCCCCCC(=O)N[C@H](C(=O)N6C[C@H](O)C[C@H]6C(=O)NCc6ccc(-c7scnc7C)cc6)C(C)(C)C)CC5)cc4OC)nc32)c1`, the figures for the DC50 in [1] and in data set [2] were more than 2000 nM and 235 nM, respectively.
With `C=CC(=O)Nc1cccc(-n2c(=O)cc(C)c3cnc(Nc4ccc(N5CCN(C(=O)CCCCCCCCCNC(=O)c6ccc(NC(=O)[C@@H]7N[C@@H](CC(C)(C)C)[C@](C#N)(c8ccc(Cl)cc8F)[C@H]7c7cccc(Cl)c7F)c(OC)c6)CC5)cc4OC)nc32)c1`, the DC50 is more than 2000 nM in [26] and 313 nM in data set [27].
Take `C=CC(=O)Nc1cccc(-n2c(=O)cc(C)c3cnc(Nc4ccc(N5CCN(C(=O)CCCCCCCCCCC(=O)N[C@H](C(=O)N6C[C@H](O)C[C@H]6C(=O)NCc6ccc(-c7scnc7C)cc6)C(C)(C)C)CC5)cc4OC)nc32)c1`: the DC50 in data set [1] was more than 2000 nM. For the same compound, in [28], the Activity entry was “Dose-dependent effect”.
For the compound `C=CC(=O)Nc1cccc(-n2c(=O)cc(C)c3cnc(Nc4ccc(N5CCN(C(=O)CCCCCCCNC(=O)c6ccc(NC(=O)[C@@H]7N[C@@H](CC(C)(C)C)[C@](C#N)(c8ccc(Cl)cc8F)[C@H]7c7cccc(Cl)c7F)c(OC)c6)CC5)cc4OC)nc32)c1`, the DC50 is more than 2000 nM in data set [26] and 253 nM in data set [27].
Consider `C=CC(=O)Nc1cccc(-n2c(=O)cc(C)c3cnc(Nc4ccc(N5CCN(C(=O)CCCCCCCCC(=O)N[C@H](C(=O)N6C[C@H](O)C[C@H]6C(=O)NCc6ccc(-c7scnc7C)cc6)C(C)(C)C)CC5)cc4OC)nc32)c1`, for which the DC50 in data set [1] is more than 2000 nM; in data set [2], 69 nM.
On to `C=CC(=O)Nc1cccc(-n2c(=O)cc(C)c3cnc(Nc4ccc(N5CCN(C(=O)CCCCCNC(=O)c6ccc(NC(=O)[C@@H]7N[C@@H](CC(C)(C)C)[C@](C#N)(c8ccc(Cl)cc8F)[C@H]7c7cccc(Cl)c7F)c(OC)c6)CC5)cc4OC)nc32)c1`, for which the values for the half-maximal degradation concentration (DC50) in data set [26] and in [27] were more than 2000 nM and 77 nM, respectively.
